Data on one compound can be found in US6486206B1, “Mechanical and pharmacologic therapies to treat cardiac arrest” (CPRx Inc., priority 1997, dated 2002).

Each structure is given as a SMILES string.

In the test the test system is porcine model of ventricular fibrillation. Conditions: pigs, standard CPR, 2 minutes after drug administration.

Protocol: Vital organ blood flow was also assessed after four minutes of ventricular fibrulation, four minutes of standard CPR, and two minutes after drug administration.

On to `CNC[C@H](O)c1ccc(O)c(O)c1` [epinephrine], for which the “endocardial:epicardial ratio (mean±SEM)” value came to 0.81±0.21.
